Measured values reported in ChEMBL document CHEMBL3045991, “Synthesis of new 2(1H)-quinoxalinone derivatives for antimicrobial and antiinflammatory evaluation” (Med Chem Res, 2009).

Columns and labels:
Escherichia coli = assay: Antibacterial activity against Escherichia coli at 10 mg/ml by cup-plate technique; type: functional; details: read-out: DIZ
Bacillus subtilis = assay: Antibacterial activity against Bacillus subtilis at 10 mg/ml by cup-plate technique; type: functional; details: read-out: DIZ
Staphylococcus aureus = assay: Antibacterial activity against Staphylococcus aureus at 10 mg/ml by cup-plate technique; type: functional; details: read-out: DIZ
Rattus norvegicus [1] = assay: Gastrointestinal toxicity in Rattus norvegicus albino (rat) assessed as incidence of gastric ulceration at 0.9 mg/100 g body weight, po qd; type: organism-based, Stomach; details: in vivo
Rattus norvegicus [2] = assay: Gastrointestinal toxicity in Rattus norvegicus albino (rat) assessed as ulcer index at 0.9 mg/100 g body weight, po qd; type: organism-based; details: in vivo
Rattus norvegicus [3] = assay: Anti-inflammatory activity in Rattus norvegicus albino (rat) assessed as reduction of carrageenan-induced paw edema thickness at 0.9 mg/100 g body weight, ip administered 1 hr before carrageenan-challenge measured after 4 hr (reference value: 0.88 +/- 0.03 mm); type: functional
Rattus norvegicus [4] = assay: Anti-inflammatory activity in Rattus norvegicus albino (rat) assessed as reduction of carrageenan-induced paw edema thickness at 0.9 mg/100 g body weight, ip administered 1 hr before carrageenan-challenge measured after 3 hr (reference value: 0.88 +/- 0.03 mm); type: functional
Rattus norvegicus [5] = assay: Anti-inflammatory activity in Rattus norvegicus albino (rat) assessed as reduction of carrageenan-induced paw edema thickness at 0.9 mg/100 g body weight, ip administered 1 hr before carrageenan-challenge measured after 2 hr (reference value: 0.88 +/- 0.03 mm); type: functional
Rattus norvegicus [6] = assay: Anti-inflammatory activity in Rattus norvegicus albino (rat) assessed as reduction of carrageenan-induced paw edema thickness at 0.9 mg/100 g body weight, ip administered 1 hr before carrageenan-challenge measured after 1 hr (reference value: 0.77 +/- 0.02 mm); type: functional

Row | SMILES | zone of inhibition at 10000 µg/mL (Escherichia coli) [mm] | zone of inhibition at 10000 µg/mL (Bacillus subtilis) [mm] | zone of inhibition at 10000 µg/mL (Staphylococcus aureus) [mm] | Activity (Rattus norvegicus [1]) [%] | UI (Rattus norvegicus [2]) | Activity (Rattus norvegicus [3]) [mm] | Activity (Rattus norvegicus [4]) [mm] | Activity (Rattus norvegicus [5]) [mm] | Activity (Rattus norvegicus [6]) [mm]
1 | O=C(CC1=NC2CCCCC2NC1=O)NN1C(=O)c2ccccc2C1=O (stereo not drawn) | 6 | – | – | – | – | – | – | – | –
2 | O=C(Cc1nc2ccccc2[nH]c1=O)NNC(=S)Nc1ccccc1 | 8 | 9 | 10 | – | – | – | – | – | –
3 | O=C(Cc1nc2ccccc2[nH]c1=O)Nn1c(-c2ccccc2)csc1=S | – | – | – | 80 | 240 | 0.52 | 0.55 | 0.55 | 0.57
4 | Cc1ccc(-c2cc(C(F)(F)F)nn2-c2ccc(S(N)(=O)=O)cc2)cc1 [CELECOXIB] | – | – | – | 0 | 0 | 0.5 | 0.45 | 0.42 | 0.45
5 | O=C(Cc1nc2ccccc2[nH]c1=O)Nn1c(-c2ccc(Cl)cc2)csc1=S | – | – | – | 0 | 0 | 0.45 | 0.47 | 0.5 | 0.55
6 | O=c1[nH]c2ccccc2nc1Cc1nnc(S)o1 | – | 10 | 11 | 80 | 240 | 0.52 | 0.6 | 0.52 | 0.57
7 | O=C1NC2CCCCC2N=C1/C=N/Nc1ccc(F)cc1 (stereo not drawn) | 7 | 17 | 16 | – | – | – | – | – | –
8 | O=C(O)c1cn(C2CC2)c2cc(N3CCNCC3)c(F)cc2c1=O [CIPROFLOXACIN] | 12 | 19 | 17 | – | – | – | – | – | –
9 | O=C1NC2CCCCC2N=C1/C=N/Nc1ccc(Br)cc1 (stereo not drawn) | 8 | 11 | 13 | – | – | – | – | – | –
10 | Nn1c(S)nnc1Cc1nc2ccccc2[nH]c1=O | – | – | – | 0 | 0 | 0.62 | 0.6 | 0.62 | 0.67
11 | CCn1c(S)nnc1Cc1nc2ccccc2[nH]c1=O | – | – | – | 0 | 0 | 0.67 | 0.52 | 0.5 | 0.5
12 | C=CCNC(=S)NNC(=O)Cc1nc2ccccc2[nH]c1=O | 7 | 8 | 9 | – | – | – | – | – | –
13 | COc1ccc2c(c1)c(CC(=O)O)c(C)n2C(=O)c1ccc(Cl)cc1 [INDOMETHACIN] | – | – | – | 100 | 500 | – | – | – | –
14 | O=C1NC2CCCCC2N=C1/C=N/Nc1ccc(Cl)cc1 (stereo not drawn) | 6 | 15 | 16 | – | – | – | – | – | –
15 | C=CCNC(=S)NNC(=O)CC1=NC2CCCCC2NC1=O (stereo not drawn) | 9 | 11 | 12 | – | – | – | – | – | –
16 | Cc1ccc(N/N=C/C2=NC3CCCCC3NC2=O)cc1 (stereo not drawn) | 5 | 7 | 6 | – | – | – | – | – | –
17 | O=C(CC1=NC2CCCCC2NC1=O)NNC(=S)Nc1ccccc1 (stereo not drawn) | 12 | 18 | 16 | – | – | – | – | – | –
18 | Cc1ccc(-c2csc(=S)n2NC(=O)Cc2nc3ccccc3[nH]c2=O)cc1 | – | – | – | 0 | 0 | 0.55 | 0.6 | 0.67 | 0.7
19 | O=c1[nH]c2ccccc2nc1Cc1nnc(S)n1-c1ccccc1 | – | – | – | 0 | 0 | 0.47 | 0.52 | 0.55 | 0.55
20 | O=C1NC2CCCCC2N=C1/C=N/Nc1ccccc1 (stereo not drawn) | 4 | 8 | 6 | – | – | – | – | – | –
